# From patent US8686150B2 (Sanofi, priority 2011, dated 2014)
# Target: T1, human full-length recombinant PKC βII (Homo sapiens, UniProt P05771)
# T1 construct: Active human full-length recombinant PKC βII; purchased Invitrogen GmbH, Darmstadt, Germany
# Assay: Determination of PKC βII inhibition (Caliper mobility-shift kinase assay, Fluorescein-RFARKGSLRQKNV peptide substrate)
# Format: biochemical
# Conditions: example compounds at a final concentration of 1.14 μM (±0.15 μM)
# How it was run: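 Full-length PKC βII (30 ng/ml in pre-dilution) with PS/DAG/Ca2+ activators, pH 7.4; fluorescein peptide and ATP at 3 μM and 120 μM before mixing. Reaction ran 60 min at 32 °C, was EDTA-stopped, and was read by mobility shift. % inhibition came from product/(substrate+product) peak heights, tested at 1.14 μM final.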
# T1 sequence (P05771 1-673 isoform P05771-2): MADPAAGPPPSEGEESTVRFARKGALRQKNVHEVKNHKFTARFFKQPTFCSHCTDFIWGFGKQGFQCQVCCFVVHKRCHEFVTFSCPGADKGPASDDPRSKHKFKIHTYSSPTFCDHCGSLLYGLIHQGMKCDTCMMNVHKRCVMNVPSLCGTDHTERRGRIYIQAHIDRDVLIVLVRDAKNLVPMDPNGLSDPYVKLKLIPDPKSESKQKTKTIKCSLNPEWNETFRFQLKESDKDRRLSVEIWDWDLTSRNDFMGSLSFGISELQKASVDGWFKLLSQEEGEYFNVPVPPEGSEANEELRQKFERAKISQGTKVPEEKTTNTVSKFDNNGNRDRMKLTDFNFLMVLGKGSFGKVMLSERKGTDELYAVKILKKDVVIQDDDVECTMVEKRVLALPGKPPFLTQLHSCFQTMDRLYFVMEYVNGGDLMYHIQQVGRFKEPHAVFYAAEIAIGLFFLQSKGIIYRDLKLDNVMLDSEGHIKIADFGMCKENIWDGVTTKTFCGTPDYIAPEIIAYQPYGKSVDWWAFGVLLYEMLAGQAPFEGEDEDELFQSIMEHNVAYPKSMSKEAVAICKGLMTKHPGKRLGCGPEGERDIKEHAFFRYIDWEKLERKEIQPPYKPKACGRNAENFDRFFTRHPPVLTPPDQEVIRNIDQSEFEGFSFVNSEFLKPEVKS
Structure (SMILES),inhibition at 1.14 µM [%],% Inhibition [%]
"CNC1CCN(C(=O)c2cc(-c3ccc(O)cc3F)nc3[nH]nc(C)c23)CC1 [Example 58, [6-(2-Fluoro-4-hydroxy-phenyl)-3-methyl-1H-pyrazolo[3,4-b]pyridin-4-yl]-(4-methylamino-piperidin-1-yl)-methanone]",93,–
"Cc1n[nH]c2nc(-c3ccc(O)cc3F)cc(C(=O)N3CCC[C@@H](CN)C3)c12 [Example 59, ((S)-3-Aminomethyl-piperidin-1-yl)-[6-(2-fluoro-4-hydroxy-phenyl)-3-methyl-1H-pyrazolo[3,4-b]pyridin-4-yl]-methanone]",80,–
"Cc1n[nH]c2nc(-c3ccc(O)cc3F)cc(C(=O)N3CCNCC3C(F)(F)F)c12 (stereo not drawn) [Example 60, [6-(2-Fluoro-4-hydroxy-phenyl)-3-methyl-1H-pyrazolo[3,4-b]pyridin-4-yl]-(2-trifluoromethyl-piperazin-1-yl)-methanone]",98,–
"Cc1n[nH]c2nc(-c3ccc(O)cc3F)cc(C(=O)NCC3(N)CCCCCC3)c12 [Example 61, 6-(2-Fluoro-4-hydroxy-phenyl)-3-methyl-1H-pyrazolo[3,4-b]pyridine-4-carboxylic acid (1-amino-cycloheptylmethyl)-amide]",92,–
"CCC1(NC(=O)c2cc(-c3ccc(O)cc3F)nc3[nH]nc(C)c23)CCCNC1 (stereo not drawn) [Example 62, 6-(2-Fluoro-4-hydroxy-phenyl)-3-methyl-1H-pyrazolo[3,4-b]pyridine-4-carboxylic acid (3-ethyl-piperidin-3-yl)-amide]",100,–
"Cc1n[nH]c2nc(-c3ccc(O)cc3F)cc(C(=O)N3CC(C)(C)NCC3(C)C)c12 [Example 63, [6-(2-Fluoro-4-hydroxy-phenyl)-3-methyl-1H-pyrazolo[3,4-b]pyridin-4-yl]-(2,2,5,5-tetramethyl-piperazin-1-yl)-methanone]",100,–
"Cc1n[nH]c2nc(-c3ccc(O)cc3F)cc(C(=O)N3CCNCC34CC4)c12 [Example 64, (4,7-Diaza-spiro[2.5]oct-4-yl)-[6-(2-fluoro-4-hydroxy-phenyl)-3-methyl-1H-pyrazolo[3,4-b]pyridin-4-yl]-methanone]",98,–
"CCC(CCN)NC(=O)c1cc(-c2ccc(O)cc2F)nc2[nH]nc(C)c12 (stereo not drawn) [Example 65, 6-(2-Fluoro-4-hydroxy-phenyl)-3-methyl-1H-pyrazolo[3,4-b]pyridine-4-carboxylic acid (3-amino-1-ethyl-propyl)-amide]",94,–
"Cc1n[nH]c2nc(-c3ccc(O)cc3F)cc(C(=O)NC(C)(C)CCN)c12 [Example 66, 6-(2-Fluoro-4-hydroxy-phenyl)-3-methyl-1H-pyrazolo[3,4-b]pyridine-4-carboxylic acid (3-amino-1,1-dimethyl-propyl)-amide]",93,–
"Cc1n[nH]c2nc(-c3ccc(O)cc3F)cc(C(=O)NCCC(C)(C)N)c12 [Example 67, 6-(2-Fluoro-4-hydroxy-phenyl)-3-methyl-1H-pyrazolo[3,4-b]pyridine-4-carboxylic acid (3-amino-3-methyl-butyl)-amide]",86,–
"CCC[C@H]1CN(C(=O)c2cc(-c3ccc(O)cc3)nc3[nH]nc(C)c23)CCN1 [Example 68, [6-(4-Hydroxy-phenyl)-3-methyl-1H-pyrazolo[3,4-b]pyridin-4-yl]-((S)-3-propyl-piperazin-1-yl)-methanone]",88,–
"Cc1n[nH]c2nc(-c3ccc(O)cc3)cc(C(=O)N3CC(C)NCC3c3ccccc3)c12 (stereo not drawn) [Example 70, [6-(4-Hydroxy-phenyl)-3-methyl-1H-pyrazolo[3,4-b]pyridin-4-yl]-(5-methyl-2-phenyl-piperazin-1-yl)-methanone]",92,–
"Cc1n[nH]c2nc(-c3ccc(O)cc3)cc(C(=O)N3CC4CCC3CN4)c12 (stereo not drawn) [Example 71, 2,5-Diaza-bicyclo[2.2.2]oct-2-yl-[6-(4-hydroxy-phenyl)-3-methyl-1H-pyrazolo[3,4-b]pyridin-4-yl]-methanone]",95,–
"Cc1n[nH]c2nc(-c3ccc(O)cc3)cc(C(=O)NC3CCNCC3)c12 [Example 74, 6-(4-Hydroxy-phenyl)-3-methyl-1H-pyrazolo[3,4-b]pyridine-4-carboxylic acid piperidin-4-ylamide]",47,–
"Cc1n[nH]c2nc(-c3ccc(O)cc3)cc(C(=O)N3CCCNCC3)c12 [Example 75, [1,4]Diazepan-1-yl-[6-(4-hydroxy-phenyl)-3-methyl-1H-pyrazolo[3,4-b]pyridin-4-yl]-methanone]",89,–
"Cc1n[nH]c2nc(-c3ccc(O)cc3)cc(C(=O)N3CCCC(N)C3)c12 (stereo not drawn) [Example 76, (3-Amino-piperidin-1-yl)-[6-(4-hydroxy-phenyl)-3-methyl-1H-pyrazolo[3,4-b]pyridin-4-yl]-methanone]",88,–
"Cc1n[nH]c2nc(-c3ccc(O)cc3)cc(C(=O)N[C@H]3CC[C@H](N)CC3)c12 [Example 77, 6-(4-Hydroxy-phenyl)-3-methyl-1H-pyrazolo[3,4-b]pyridine-4-carboxylic acid (trans-4-amino-cyclohexyl)-amide]",60,–
"Cc1n[nH]c2nc(-c3ccc(O)cc3)cc(C(=O)N3CCNCC34CC4)c12 [Example 80, (4,7-Diaza-spiro[2.5]oct-4-yl)-[6-(4-hydroxy-phenyl)-3-methyl-1H-pyrazolo[3,4-b]pyridin-4-yl]-methanone]",91,–
"Cc1n[nH]c2nc(-c3ccc(O)cc3)cc(C(=O)N3C[C@H](C)NC[C@H]3C)c12 [Example 81, ((2R,5S)-2,5-Dimethyl-piperazin-1-yl)-[6-(4-hydroxy-phenyl)-3-methyl-1H-pyrazolo[3,4-b]pyridin-4-yl]-methanone]",–,76
"Cc1n[nH]c2nc(-c3ccc(O)cc3)cc(C(=O)N3C[C@@H](C)NC[C@H]3C)c12 [Example 83, ((2R,5R)-2,5-Dimethyl-piperazin-1-yl)-[6-(4-hydroxy-phenyl)-3-methyl-1H-pyrazolo[3,4-b]pyridin-4-yl]-methanone]",104,–
"Cc1n[nH]c2nc(-c3ccc(O)cc3)cc(C(=O)N3CCNC(C4CC4)C3)c12 (stereo not drawn) [Example 86, (3-Cyclopropyl-piperazin-1-yl)-[6-(4-hydroxy-phenyl)-3-methyl-1H-pyrazolo[3,4-b]pyridin-4-yl]-methanone]",96,–
"Cc1n[nH]c2nc(-c3ccc(O)cc3)cc(C(=O)N3C[C@H](C)NC[C@@H]3C)c12 [Example 88, ((2S,5S)-2,5-Dimethyl-piperazin-1-yl)-[6-(4-hydroxy-phenyl)-3-methyl-1H-pyrazolo[3,4-b]pyridin-4-yl]-methanone]",101,–
"Cc1n[nH]c2nc(-c3ccc(O)cc3)cc(C(=O)N3CC(CN)C3)c12 [Example 90, (3-Aminomethyl-azetidin-1-yl)-[6-(4-hydroxy-phenyl)-3-methyl-1H-pyrazolo[3,4-b]pyridin-4-yl]-methanone]",96,–

# Results, then the compound that gave them:
inhibition at 1.14 µM [%],% Inhibition [%],Structure (SMILES)
100,–,"COc1ccc(C2CNCCN2C(=O)c2cc(-c3ccc(O)cc3)nc3[nH]nc(C)c23)cc1 (stereo not drawn) [Example 69, [6-(4-Hydroxy-phenyl)-3-methyl-1H-pyrazolo[3,4-b]pyridin-4-yl]-[2-(4-methoxy-phenyl)-piperazin-1-yl]-methanone]"
94,–,"COc1cccc(C2CNCCN2C(=O)c2cc(-c3ccc(O)cc3)nc3[nH]nc(C)c23)c1 (stereo not drawn) [Example 72, [6-(4-Hydroxy-phenyl)-3-methyl-1H-pyrazolo[3,4-b]pyridin-4-yl]-[2-(3-methoxy-phenyl)-piperazin-1-yl]-methanone]"
82,–,"COc1ccccc1C1CNCCN1C(=O)c1cc(-c2ccc(O)cc2)nc2[nH]nc(C)c12 (stereo not drawn) [Example 79, [6-(4-Hydroxy-phenyl)-3-methyl-1H-pyrazolo[3,4-b]pyridin-4-yl]-[2-(2-methoxy-phenyl)-piperazin-1-yl]-methanone]"
92,–,"Cc1n[nH]c2nc(-c3ccc(O)cc3)cc(C(=O)N3CCNC[C@@H]3c3cccc(F)c3)c12 [Example 82, [(S)-2-(3-Fluoro-phenyl)-piperazin-1-yl]-[6-(4-hydroxy-phenyl)-3-methyl-1H-pyrazolo[3,4-b]pyridin-4-yl]-methanone]"
101,–,"Cc1n[nH]c2nc(-c3ccc(O)cc3)cc(C(=O)N3CCNCC3c3ccc(F)cc3)c12 (stereo not drawn) [Example 84, [2-(4-Fluoro-phenyl)-piperazin-1-yl]-[6-(4-hydroxy-phenyl)-3-methyl-1H-pyrazolo[3,4-b]pyridin-4-yl]-methanone]"
98,–,"Cc1n[nH]c2nc(-c3ccc(O)cc3)cc(C(=O)N3CCNCC3c3cccc(F)c3F)c12 (stereo not drawn) [Example 85, [2-(2,3-Difluoro-phenyl)-piperazin-1-yl]-[6-(4-hydroxy-phenyl)-3-methyl-1H-pyrazolo[3,4-b]pyridin-4-yl]-methanone]"
93,–,"Cc1n[nH]c2nc(-c3ccc(O)cc3)cc(C(=O)N3CCNCC3c3cc(F)cc(F)c3)c12 (stereo not drawn) [Example 87, [2-(3,5-Difluoro-phenyl)-piperazin-1-yl]-[6-(4-hydroxy-phenyl)-3-methyl-1H-pyrazolo[3,4-b]pyridin-4-yl]-methanone]"
92,–,"Cc1n[nH]c2nc(-c3ccc(O)cc3)cc(C(=O)N3CCNCC3c3ccc(Br)cc3)c12 (stereo not drawn) [Example 89, [2-(4-Bromo-phenyl)-piperazin-1-yl]-[6-(4-hydroxy-phenyl)-3-methyl-1H-pyrazolo[3,4-b]pyridin-4-yl]-methanone]"
93,–,"Cc1n[nH]c2nc(-c3ccc(O)cc3)cc(C(=O)N3CCNCC3c3cccc(F)c3)c12 (stereo not drawn) [Example 91, [2-(3-Fluoro-phenyl)-piperazin-1-yl]-[6-(4-hydroxy-phenyl)-3-methyl-1H-pyrazolo[3,4-b]pyridin-4-yl]-methanone]"
95,–,"Cc1n[nH]c2nc(-c3ccc(O)cc3)cc(C(=O)N3CCNCC3c3ccc(F)c(F)c3)c12 (stereo not drawn) [Example 92, [2-(3,4-Difluoro-phenyl)-piperazin-1-yl]-[6-(4-hydroxy-phenyl)-3-methyl-1H-pyrazolo[3,4-b]pyridin-4-yl]-methanone]"
